Assay results reported in PubChem BioAssay AID1259407 (Chemical Carcinogenesis Research Information System (CCRIS), 2018).
Active and inactive are the calls of the source. No rule for the calls is given here.

Test system: CCRIS mutagenicity, Ames/micronucleus/aberration tests
Test: CCRIS mutagenicity studies
Details: Test System: AMES SALMONELLA TYPHIMURIUM
[1] = Strain/Indicator: TA98, Metabolic Activation: NONE, Method: STANDARD PLATE
[2] = Strain/Indicator: TA100, Metabolic Activation: NONE, Method: STANDARD PLATE

**Q.** What does the source list for `Oc1cccc(Nc2ccccc2)c1`?
**A.** mutagenic call (Strain/Indicator: TA97, Metabolic Activation: HAMSTER, LIVER, S-9, AROCLOR 1254 (10%), Method: PREINCUBATION): inactive; negative; mutagenic call (Strain/Indicator: TA97, Metabolic Activation: HAMSTER, LIVER, S-9, AROCLOR 1254 (30%), Method: PREINCUBATION): inactive; negative; mutagenic call (Strain/Indicator: TA97, Metabolic Activation: NONE, Method: PREINCUBATION): inactive; negative; mutagenic call (Strain/Indicator: TA97, Metabolic Activation: RAT, LIVER, S-9, AROCLOR 1254 (10%), Method: PREINCUBATION): inactive; negative; mutagenic call (Strain/Indicator: TA97, Metabolic Activation: RAT, LIVER, S-9, AROCLOR 1254 (30%), Method: PREINCUBATION): inactive; negative; mutagenic call (Strain/Indicator: TA98, Metabolic Activation: HAMSTER, LIVER, S-9, AROCLOR 1254 (10%), Method: PREINCUBATION): inactive; negative; mutagenic call (Strain/Indicator: TA98, Metabolic Activation: HAMSTER, LIVER, S-9, AROCLOR 1254 (30%), Method: PREINCUBATION): inactive; negative; mutagenic call (Strain/Indicator: TA98, Metabolic Activation: NONE, Method: PREINCUBATION): inactive; negative; mutagenic call (Strain/Indicator: TA98, Metabolic Activation: RAT, LIVER, S-9, AROCLOR 1254 (10%), Method: PREINCUBATION): inactive; negative; mutagenic call (Strain/Indicator: TA98, Metabolic Activation: RAT, LIVER, S-9, AROCLOR 1254 (30%), Method: PREINCUBATION): inactive; negative; mutagenic call (Strain/Indicator: TA100, Metabolic Activation: HAMSTER, LIVER, S-9, AROCLOR 1254 (10%), Method: PREINCUBATION): inactive; negative; mutagenic call (Strain/Indicator: TA100, Metabolic Activation: HAMSTER, LIVER, S-9, AROCLOR 1254 (30%), Method: PREINCUBATION): inactive; negative; mutagenic call (Strain/Indicator: TA100, Metabolic Activation: NONE, Method: PREINCUBATION): inactive; negative; mutagenic call (Strain/Indicator: TA100, Metabolic Activation: RAT, LIVER, S-9, AROCLOR 1254 (10%), Method: PREINCUBATION): inactive; negative; mutagenic call (Strain/Indicator: TA100, Metabolic Activation: RAT, LIVER, S-9, AROCLOR 1254 (30%), Method: PREINCUBATION): inactive; negative; mutagenic call (Strain/Indicator: TA1535, Metabolic Activation: HAMSTER, LIVER, S-9, AROCLOR 1254 (10%), Method: PREINCUBATION): inactive; negative; mutagenic call (Strain/Indicator: TA1535, Metabolic Activation: HAMSTER, LIVER, S-9, AROCLOR 1254 (30%), Method: PREINCUBATION): inactive; negative; mutagenic call (Strain/Indicator: TA1535, Metabolic Activation: NONE, Method: PREINCUBATION): inactive; negative; mutagenic call (Strain/Indicator: TA1535, Metabolic Activation: RAT, LIVER, S-9, AROCLOR 1254 (10%), Method: PREINCUBATION): inactive; negative; mutagenic call (Strain/Indicator: TA1535, Metabolic Activation: RAT, LIVER, S-9, AROCLOR 1254 (30%), Method: PREINCUBATION): inactive; negative

**Q.** Which results are given for `O=C(NC(=O)c1c(F)cccc1F)Nc1cc(Cl)c(Oc2ncc(C(F)(F)F)cc2Cl)c(Cl)c1`?
**A.** mutagenic call [1]: inactive; negative; mutagenic call (Strain/Indicator: TA98, Metabolic Activation: RAT, LIVER, S-9, AROCLOR 1254, Method: STANDARD PLATE): inactive; negative; mutagenic call [2]: inactive; negative; mutagenic call (Strain/Indicator: TA100, Metabolic Activation: RAT, LIVER, S-9, AROCLOR 1254, Method: STANDARD PLATE): inactive; negative; mutagenic call (Strain/Indicator: TA1535, Metabolic Activation: NONE, Method: STANDARD PLATE): inactive; negative; mutagenic call (Strain/Indicator: TA1535, Metabolic Activation: RAT, LIVER, S-9, AROCLOR 1254, Method: STANDARD PLATE): inactive; negative; mutagenic call (Strain/Indicator: TA1537, Metabolic Activation: NONE, Method: STANDARD PLATE): inactive; negative; mutagenic call (Strain/Indicator: TA1537, Metabolic Activation: RAT, LIVER, S-9, AROCLOR 1254, Method: STANDARD PLATE): inactive; negative; mutagenic call (Strain/Indicator: TA1538, Metabolic Activation: NONE, Method: STANDARD PLATE): inactive; negative; mutagenic call (Strain/Indicator: TA1538, Metabolic Activation: RAT, LIVER, S-9, AROCLOR 1254, Method: STANDARD PLATE): inactive; negative

**Q.** `CC(=O)OCc1c2ccccc2c(C)c2ccccc12` was tested. Which mutagenic call [1] did it give?
**A.** Its mutagenic call is “active; positive”.

**Q.** What about the mutagenic call [2] of the same molecule?
**A.** The mutagenic call was “active; positive”.
